Read-outs that look alike come from different tables or passages of the source.
Tests used:
[1] = test system: MDA-231-LNA cells; assay: cells; conditions: 72 h
[2] = molecular target: FAK enzyme (catalytic domain, amino acids 411-686) (Homo sapiens, UniProt Q05397); assay: biochemical
[3] = molecular target: N-terminally GST-fused purified FAK enzyme (Homo sapiens, UniProt Q05397); assay: biochemical
Method: Binding parameters of compounds were determined using a Biacore™ S51 sensor. An anti-GST antibody was immobilized onto a CM5 chip by primary amine-coupling in accordance with the manufacturer's recommendations.
Concentration series' of the test compounds were injected over the spots at 25° C.
After the injection cycle of a compound the chip surface was regenerated with 10 mM glycine-HCl, pH2.2 before capturing the enzyme again.

[4] = molecular target: VEGFR3 cytoplasmic domain (Homo sapiens, UniProt P35916); assay: biochemical
Chain of VEGFR3 cytoplasmic domain (Homo sapiens, UniProt P35916) (P35916 other isoform, or with tags, fused parts or gaps): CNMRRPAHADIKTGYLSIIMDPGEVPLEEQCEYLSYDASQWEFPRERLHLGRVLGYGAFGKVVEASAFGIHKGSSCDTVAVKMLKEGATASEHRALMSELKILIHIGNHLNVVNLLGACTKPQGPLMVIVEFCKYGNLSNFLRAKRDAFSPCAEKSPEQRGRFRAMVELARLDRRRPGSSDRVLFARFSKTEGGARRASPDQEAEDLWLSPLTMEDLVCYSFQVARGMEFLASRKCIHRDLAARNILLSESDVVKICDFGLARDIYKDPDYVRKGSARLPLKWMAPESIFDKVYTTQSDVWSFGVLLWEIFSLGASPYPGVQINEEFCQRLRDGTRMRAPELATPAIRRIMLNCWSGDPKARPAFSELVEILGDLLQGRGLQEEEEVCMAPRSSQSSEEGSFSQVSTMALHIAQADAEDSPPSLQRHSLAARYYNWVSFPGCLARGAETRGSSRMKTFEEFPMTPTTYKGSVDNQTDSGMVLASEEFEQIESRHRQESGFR

[5] = molecular target: T1, Phospho VEGFR3 (Flt4) in HMVEC-dLyAD cells (Homo sapiens, UniProt P35916); assay: Flt4 Phospho ELISA assay; format: cell-based
T1 construct: host or cells: HMVEC-dLyAD (adult human dermal lymphatic microvascular endothelial cells)
T1 sequence (P35916 25-1363): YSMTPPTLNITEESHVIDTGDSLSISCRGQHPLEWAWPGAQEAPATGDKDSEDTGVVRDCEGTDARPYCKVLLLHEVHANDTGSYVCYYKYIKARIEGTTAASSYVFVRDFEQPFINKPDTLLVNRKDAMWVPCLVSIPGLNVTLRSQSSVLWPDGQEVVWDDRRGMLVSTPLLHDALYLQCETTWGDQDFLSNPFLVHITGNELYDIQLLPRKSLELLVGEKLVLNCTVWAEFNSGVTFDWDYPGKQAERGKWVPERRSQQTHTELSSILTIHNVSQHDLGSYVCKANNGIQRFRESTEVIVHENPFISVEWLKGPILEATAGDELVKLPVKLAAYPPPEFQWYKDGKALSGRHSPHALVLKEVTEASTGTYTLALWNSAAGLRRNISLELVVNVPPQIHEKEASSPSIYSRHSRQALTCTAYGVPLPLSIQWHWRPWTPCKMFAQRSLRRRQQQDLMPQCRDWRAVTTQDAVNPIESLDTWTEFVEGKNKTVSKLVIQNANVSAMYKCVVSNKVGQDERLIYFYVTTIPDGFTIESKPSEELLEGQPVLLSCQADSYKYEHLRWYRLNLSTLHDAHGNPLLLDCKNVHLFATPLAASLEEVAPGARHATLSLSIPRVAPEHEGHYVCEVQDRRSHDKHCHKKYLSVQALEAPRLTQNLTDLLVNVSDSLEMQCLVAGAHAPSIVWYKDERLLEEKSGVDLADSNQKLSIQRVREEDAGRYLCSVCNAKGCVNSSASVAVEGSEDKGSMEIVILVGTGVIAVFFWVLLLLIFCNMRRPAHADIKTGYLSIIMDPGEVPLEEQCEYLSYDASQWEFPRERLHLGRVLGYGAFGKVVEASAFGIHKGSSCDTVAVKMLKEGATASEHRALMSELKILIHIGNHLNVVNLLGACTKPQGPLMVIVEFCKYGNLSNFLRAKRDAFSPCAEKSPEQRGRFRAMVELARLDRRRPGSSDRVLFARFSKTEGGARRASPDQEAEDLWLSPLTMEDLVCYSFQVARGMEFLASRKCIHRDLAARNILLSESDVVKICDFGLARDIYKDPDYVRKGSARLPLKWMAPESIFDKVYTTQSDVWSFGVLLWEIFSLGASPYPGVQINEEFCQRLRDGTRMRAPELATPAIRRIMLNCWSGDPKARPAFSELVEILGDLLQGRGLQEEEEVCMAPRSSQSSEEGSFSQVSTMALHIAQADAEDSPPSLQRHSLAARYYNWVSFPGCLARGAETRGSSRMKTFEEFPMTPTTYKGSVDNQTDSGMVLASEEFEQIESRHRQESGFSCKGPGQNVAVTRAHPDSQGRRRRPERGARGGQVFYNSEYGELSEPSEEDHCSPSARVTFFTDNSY
Method: The ability of compounds of the invention to inhibit VEGFR3 within cells can be assessed with an ELISA type assay.
The plates were covered and incubated at room temperature overnight.
300 μL of Blocking buffer (5% v/v Tween 20, 5% w/v sucrose in PBS) was then added to wells and plate incubated for 2 hours at room temperature. Blocking solution is flicked out and plates washed three times and tapped dry.
Compound dilution series were prepared in Endogro basal (Cat # SCME-BM, Millipore)+0.1% BSA (Cat#A8412, Sigma) with constant 0.1% DMSO concentration. 439 μL of sample or vehicle control was added to the cell monolayers.
130 μL of Lysis buffer added to wells and cell lysate harvested and transferred to tubes and stored on ice.
The plates were then washed three times in wash buffer as described above and tapped dry. […]
Total VEGFR3 levels were quantified using a Multiskan Ascent plate reader and Ascent software fitted with 450 nm filter. […]
Phospho VEGFR3 levels were quantified using a Multiscan ascent plate reader and ascent software fitted with 450 nm filter.
where SRP is the Sample Relative Phospho level, SP is Phospho VEGFR3 reading and ST is Total VEGFR3 reading.
Percent inhibition (% I) for each lysate relative to vehicle control (VEGF-C stimulated) is then calculated according to the following formula:
where SRP is the Sample Relative Phospho level as calculated above. […]

[6] = molecular target: T2, VEGFR3 cytoplasmic domain (Homo sapiens, UniProt P35916, DEL949-1002); assay: biochemical
T2 construct: VEGFR3 cytoplasmic domain (amino acids 798-1298) was purchased as N-terminal GST-fusion protein; purchased
T2 sequence (P35916 with tags, fused parts or gaps DEL949-1002): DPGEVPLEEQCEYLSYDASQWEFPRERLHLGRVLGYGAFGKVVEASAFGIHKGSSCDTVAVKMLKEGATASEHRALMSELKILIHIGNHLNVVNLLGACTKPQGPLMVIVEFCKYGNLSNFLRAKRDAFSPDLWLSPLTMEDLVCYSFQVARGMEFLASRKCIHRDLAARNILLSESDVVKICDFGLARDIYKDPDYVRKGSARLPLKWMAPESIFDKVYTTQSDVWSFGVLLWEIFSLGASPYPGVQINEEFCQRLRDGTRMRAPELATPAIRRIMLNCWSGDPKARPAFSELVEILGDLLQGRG

[7] = test system: taxane-sensitive (SKOV3ip1 and HeyA8) and taxane-resistant (HeyA8-MDR) ovarian cancer cell lines; conditions: in vitro; cited from earlier work
[8] = test system: HeyA8, SKOV3ip1, and HeyA8-MDR models; conditions: cited from earlier work

Chain of N-terminally GST-fused purified FAK enzyme (Q05397 whole entry, the tested form may be a part): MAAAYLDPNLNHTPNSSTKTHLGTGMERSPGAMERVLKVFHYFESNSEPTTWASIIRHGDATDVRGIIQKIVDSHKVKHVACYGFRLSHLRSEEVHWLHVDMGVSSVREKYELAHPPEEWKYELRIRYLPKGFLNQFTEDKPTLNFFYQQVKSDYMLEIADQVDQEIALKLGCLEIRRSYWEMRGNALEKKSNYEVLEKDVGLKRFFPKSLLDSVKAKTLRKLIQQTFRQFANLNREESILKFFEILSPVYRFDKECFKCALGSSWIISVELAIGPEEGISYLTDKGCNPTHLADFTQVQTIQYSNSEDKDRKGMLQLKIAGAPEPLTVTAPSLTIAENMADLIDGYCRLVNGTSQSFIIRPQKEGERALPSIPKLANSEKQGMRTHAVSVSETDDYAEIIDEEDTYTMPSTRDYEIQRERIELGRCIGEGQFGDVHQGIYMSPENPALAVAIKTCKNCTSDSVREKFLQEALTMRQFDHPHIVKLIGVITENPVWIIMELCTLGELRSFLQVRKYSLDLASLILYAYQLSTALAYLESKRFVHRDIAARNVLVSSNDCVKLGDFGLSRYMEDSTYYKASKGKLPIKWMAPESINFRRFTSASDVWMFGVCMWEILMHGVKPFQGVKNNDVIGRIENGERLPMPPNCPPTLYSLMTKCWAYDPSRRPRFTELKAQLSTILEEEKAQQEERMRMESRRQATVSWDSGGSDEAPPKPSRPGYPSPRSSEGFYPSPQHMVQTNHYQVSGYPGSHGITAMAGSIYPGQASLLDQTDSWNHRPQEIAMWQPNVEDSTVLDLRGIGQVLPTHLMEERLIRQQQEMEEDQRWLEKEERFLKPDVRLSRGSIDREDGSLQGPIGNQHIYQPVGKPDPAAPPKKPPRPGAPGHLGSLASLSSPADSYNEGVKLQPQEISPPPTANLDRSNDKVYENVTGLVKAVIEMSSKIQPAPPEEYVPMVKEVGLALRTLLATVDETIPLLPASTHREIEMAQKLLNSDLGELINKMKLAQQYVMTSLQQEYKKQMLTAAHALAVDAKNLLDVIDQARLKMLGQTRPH
Chain of FAK enzyme (catalytic domain, amino acids 411-686) (Q05397 411-686, species assumed): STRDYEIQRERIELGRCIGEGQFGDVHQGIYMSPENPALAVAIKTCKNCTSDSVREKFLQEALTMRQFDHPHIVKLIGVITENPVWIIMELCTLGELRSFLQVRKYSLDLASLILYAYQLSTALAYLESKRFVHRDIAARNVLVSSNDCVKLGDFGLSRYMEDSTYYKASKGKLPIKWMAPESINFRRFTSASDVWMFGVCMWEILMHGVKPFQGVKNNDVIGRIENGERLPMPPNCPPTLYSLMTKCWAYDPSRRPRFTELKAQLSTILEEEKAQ

SMILES | IC50 [1] [nM] | IC50 [2] [nM] | Kd [3] [nM] | further results
NC(=O)Cc1ccccc1CCc1nc(Nc2ccc(CN3CCNCC3)cc2)ncc1C(F)(F)F [Compound 25, 2-(2-(2-(2-((4-(piperazin-1-ylmethyl)phenyl)amino)-5-(trifluoromethyl)pyrimidin-4-yl)ethyl)phenyl)acetamide] | 2890 |  |  | 
NC(=O)Cc1nccnc1CCc1nc(Nc2ccc(C3CCNCC3)cc2)ncc1C(F)(F)F [Compound 26, 2-(3-(2-(2-((4-(Piperidin-4-yl)phenyl)amino)-5-(trifluoromethyl)pyrimidin-4-yl)ethyl)pyrazin-2-yl)acetamide] |  | 20 | 14 | 
NC(=O)Cc1ccccc1CCc1nc(Nc2ccc(C3CCNCC3)cc2)ncc1C(F)(F)F [Compound 11, 2-(2-(2-(2-((4-(Piperidin-4-yl)phenyl)amino)-5-(trifluoromethyl)pyrimidin-4-yl)ethyl)phenyl)acetamide] |  | 3 | 0.61 | 
NC(=O)Cc1ccccc1CCc1nc(Nc2ccc3c(c2)CCNC3)ncc1C(F)(F)F [Compound 21, 2-(2-(2-(2-((1,2,3,4-Tetrahydroisoquinolin-6-yl)amino)-5-(trifluoromethyl)pyrimidin-4-yl)ethyl)phenyl)acetamide] |  | 2.4 | 0.44 | 
CC(C(N)=O)c1ccccc1CCc1nc(Nc2ccc(C3CCNCC3)cc2)ncc1C(F)(F)F (centres unmarked) [Compound 12, 2-(2-(2-(2-((4-(Piperidin-4-yl)phenyl)amino)-5-(trifluoromethyl)pyrimidin-4-yl)ethyl)phenyl)propanamide] |  | 6.3 | 0.92 | 
CN1CCN(c2ccc(Nc3ncc(C(F)(F)F)c(CCc4ccccc4CC(N)=O)n3)cc2)CC1 [Compound 3] |  | 1.9 | 0.91 | 
CN1CCN(c2cccc(Nc3ncc(C(F)(F)F)c(CCc4ccccc4CC(N)=O)n3)c2)CC1 [Compound 17, 2-(2-(2-(2-((3-(4-Methylpiperazin-1-yl)phenyl)amino)-5-(trifluoromethyl)pyrimidin-4-yl)ethyl)phenyl)acetamide] | 3510 | 3.4 | 3.5 | IC50 [4]: 31 nM; IC50 [5]: 44 nM
NC(=O)Cc1ccccc1CCc1nc(Nc2ccc(N3CCC(N)CC3)cc2)ncc1C(F)(F)F [Compound 20, 2-(2-(2-(2-((4-(4-Aminopiperidin-1-yl)phenyl)amino)-5-(trifluoromethyl)pyrimidin-4-yl)ethyl)phenyl)acetamide] |  | 0.81 | 0.63 | 
O=C1NCc2cccc(CCc3nc(Nc4ccc(N5CCNCC5)cc4)ncc3C(F)(F)F)c21 [Compound 15, 7-(2-(2-((4-(piperazin-1-yl)phenyl)amino)-5-(trifluoromethyl)pyrimidin-4-yl)ethyl)isoindolin-1-one] | 2370 | 18 | 5 | IC50 ([4]; read-out: IC50): 37 nM
NC(=O)Cc1ccccc1CCc1nc(Nc2ccc(N3CCNCC3)cc2)ncc1C(F)(F)F [Compound 1, 2-(2-(2-(2-((4-(piperazin-1-yl)phenyl)amino)-5-(trifluoromethyl)pyrimidin-4-yl)ethyl)phenyl)acetamide] |  | 2.1 | 0.49 | 
CNC(=O)Cc1ccccc1CCc1nc(Nc2ccc(N3CCNCC3)cc2)ncc1C(F)(F)F [Compound 14, N-Methyl-2-(2-(2-(2-((4-(piperazin-1-yl)phenyl)amino)-5-(trifluoromethyl)pyrimidin-4-yl)ethyl)phenyl)acetamide] | 4490 | 21 | 6.1 | IC50 [4]: 101 nM
CNC(=O)Cc1ccccc1CCc1nc(Nc2cccc(N3CCN(C)CC3)c2)ncc1C(F)(F)F [Compound 18] | > 5000 | 13 | 13 | IC50 [4]: 664 nM
CN1CCN(Cc2ccc(Nc3ncc(C(F)(F)F)c(CCc4ccccc4CC(N)=O)n3)cc2)CC1 [Compound 36, 2-(2-(2-(2-((4-((4-Methylpiperazin-1-yl)methyl)phenyl)amino)-5-(trifluoromethyl)pyrimidin-4-yl)ethyl)phenyl)acetamide] | 5620 | 2.3 | 0.48 | IC50 [4]: 16 nM; IC50 [5]: 169 nM
CN1CCN(c2cccc(Nc3ncc(C(F)(F)F)c(CCc4cccc(C(N)=O)c4)n3)c2)CC1 [Compound 6, 3-(2-(2-((3-(4-Methylpiperazin-1-yl)phenyl)amino)-5-(trifluoromethyl)pyrimidin-4-yl)ethyl)benzamide] | 3910 | 4.2 | 6.3 | IC50 [4]: 52 nM
CCN1CCC(c2ccc(Nc3ncc(C(F)(F)F)c(CCc4ccccc4CC(N)=O)n3)cc2)CC1 [Compound 31, 2-(2-(2-(2-((4-(1-Ethylpiperidin-4-yl)phenyl)amino)-5-(trifluoromethyl)pyrimidin-4-yl)ethyl)phenyl)acetamide] |  |  | 1 | 
CN1CCC(c2ccc(Nc3ncc(C(F)(F)F)c(CCc4cc(C(N)=O)ccn4)n3)cc2)CC1 [Compound 34, 2-(2-(2-((4-(1-Methylpiperidin-4-yl)phenyl)amino)-5-(trifluoromethyl)pyrimidin-4-yl)ethyl)isonicotinamide] | 7850 | 5.7 | 5 | IC50 [6]: 184 nM
NC(=O)Cc1ccccc1CCc1nc(Nc2ccc(C3CNCCO3)cc2)ncc1C(F)(F)F (centres unmarked) [Compound 22, 2-(2-(2-(2-((4-(morpholin-2-yl)phenyl)amino)-5-(trifluoromethyl)pyrimidin-4-yl)ethyl)phenyl)acetamide] |  | 2.8 | 0.99 | 
NC(=O)Cc1ccccc1CCc1nc(Nc2ccc(C3CCCNC3)cc2)ncc1C(F)(F)F (centres unmarked) [Compound 4, 2-(2-(2-(2-((4-(Piperidin-3-yl)phenyl)amino)-5-(trifluoromethyl)pyrimidin-4-yl)ethyl)phenyl)acetamide] |  | 1.5 | 0.73 | 
NC(=O)c1cccc(CCc2nc(Nc3ccc(CN4CCNCC4)cc3)ncc2C(F)(F)F)c1 [Compound 37, 3-(2-(2-((4-(piperazin-1-ylmethyl)phenyl)amino)-5-(trifluoromethyl)pyrimidin-4-yl)ethyl)benzamide] | 2790 | 15 |  | IC50 [4]: 254 nM
Cc1ccc(CCc2nc(Nc3ccc(N4CCNCC4)cc3)ncc2C(F)(F)F)cc1C(N)=O [Compound 19, 2-Methyl-5-(2-(2-((4-(piperazin-1-yl)phenyl)amino)-5-(trifluoromethyl)pyrimidin-4-yl)ethyl)benzamide] | 1490 | 7.7 | 7.8 | IC50 [4]: 37 nM
CN1CCCCC1c1ccc(Nc2ncc(C(F)(F)F)c(CCc3ccccc3CC(N)=O)n2)cc1 (centres unmarked) [Compound 9] |  | 7 | 7 | 
NC(=O)Cc1ccccc1CCc1nc(Nc2ccc(C3CCCCN3)cc2)ncc1C(F)(F)F (centres unmarked) [Compound 8, 2-(2-(2-(2-((4-(Piperidin-2-yl)phenyl)amino)-5-(trifluoromethyl)pyrimidin-4-yl)ethyl)phenyl)acetamide] |  | 6.1 | 1 | 
CN1CCN(c2ccc(Nc3ncc(C(F)(F)F)c(CCc4cccc(C(N)=O)c4)n3)cc2)CC1 [Compound 2, 3-(2-(2-((4-(4-Methylpiperazin-1-yl)phenyl)amino)-5-(trifluoromethyl)pyrimidin-4-yl)ethyl)benzamide] | 3210 | 2.5 | 1.5 | IC50 ([6]; modified form (*): N-terminal Hexa-His-fusion protein, amino acids 818-1177 lacking 949-1002, read-out: IC50): 120 nM
CNC(=O)c1ccccc1Nc1nc(Nc2ccc(N3CCOCC3)cc2OC)ncc1Cl [TAE226] |  |  |  | phosphorylation of FAK at both Y397 and Y861 sites [7]: inhibited; reduced tumour burden compared with vehicle-treated controls ([8]; TAE226 alone, HeyA8, SKOV3ip1, HeyA8-MDR models): 46-64%; tumour burden reduction ([8]; concomitant administration of TAE226 and docetaxel, all three models): 85-97%; survival in tumour-bearing mice ([8]; in combination with docetaxel): significantly prolonged survival
NC(=O)Cc1cncnc1CCc1nc(Nc2ccc(C3CCNCC3)cc2)ncc1C(F)(F)F [Compound 29, 2-(4-(2-(2-((4-(Piperidin-4-yl)phenyl)amino)-5-(trifluoromethyl)pyrimidin-4-yl)ethyl)pyrimidin-5-yl)acetamide] |  | 11 | 12.1 | 

Reference: US20130324532A1 (priority 2011, published 2013)
